Publication PMC6813295, “A tumour-selective cascade activatable self-detained system for drug delivery and cancer imaging” (Nature Communications, 2019)
Where a SMILES comes first, the peptide text is derived from it. The star is where a group is joined. X1 = CC1(C)C(=CC=C2CCCC(C=CC3=[N+](CCCCCC(=O)O)c4ccccc4C3(C)C)=C2*)N(CCCCCC(=O)O)c2ccccc21

Tested on: H460 and 293T cells
Experiment: Confocal imaging of accumulation and retention in cells, H460 versus 293T
Assay type: cell-based, human
Details: 50 μM for 1 h, washed, at 6 h (maximum difference), cytoplasm, n = 15
Procedure: Fig. 3 Recognition and self-assembly of molecule 1 in cells. a Western blots of XIAP expression in H460 and 293T cells. b Confocal images of H460 cells treated with or without energy-dependent inhibitor (oligomycin A, 20 μM) for 1 h, and followed by washing with PBS and treated with the molecule 1 (50 μM) for 1 h. c Statistical analysis of average fluorescence intensities in the cytoplasm of H460 cells from confocal images. Data are presented as the mean ± s.d. (n = 100). ***p < 0.001, p values were performed with one-way ANOVA followed by post hoc Tukey’s test for the indicated comparison. d Confocal images of time-dependent monitoring of H460 and 293T cells treated with the molecule 1 (50 μM) for 1 h followed by washing with PBS and replacing the medium and a further incubation up to 48 h. e Statistical analysis of average fluorescence intensities in the cytoplasm of H460 and 293T cells from confocal images with a timescale range of 1–48 h. Data are presented as the mean ± s.d. […] Finally, incubate up to 6 h and imaging by confocal microscope. g Schematic diagram illustrates the process of NBD fluorescence illumination. h Confocal images of H460 cells treatment with molecule 1-NBD (50 μM) for 1 h. i TEM images of ultrathin section of H460 cells treated with molecule I-1 (50 μM) and without the molecule I-1 for up to 12 h. […]

CC[C@H](C)[C@H](NC(=O)[C@@H]1CCCN1C(=O)[C@@H](NC(=O)[C@H](C)N)C(C)C)C(=O)N[C@@H](C)C(=O)N[C@@H](CCC(N)=O)C(=O)N[C@@H](CCCCN)C(=O)N[C@@H](CC(=O)O)C(=O)N[C@@H](CCC(=O)O)C(=O)N[C@H](C(=O)N[C@@H](CC(=O)O)C(=O)N[C@@H](CCCCN)C(=O)N[C@@H](CC(C)C)C(=O)N[C@H](C(=O)N[C@@H](Cc1ccccc1)C(=O)N[C@@H](Cc1ccccc1)C(=O)N[C@@H](C)C(=O)N[C@@H](CCC(=O)O)C(=O)N[C@@H](CSC1=C(C=CC2=[N+](CCCCCC(=O)O)c3ccccc3C2(C)C)CCCC1=CC=C1N(CCCCCC(=O)O)c2ccccc2C1(C)C)C(=O)NCC(=O)O)C(C)C)C(C)C [molecule 1] (H-AVPIAQKDEVDKLVFFAEC(X1)G-OH)
fluorescent intensity in H460 cells relative to 293T cells: fivefold higher
